In patent US5492910A, “Retrocarbamate protease inhibitors” (Bristol-Myers Squibb Co., priority 1994, dated 1996):

Key:
HIV protease = biological target: T1, HIV protease (Human immunodeficiency virus type 1 group M subtype B, UniProt P04585); assay: HIV Protease Assay; format: biochemical; conditions: 10 μM inhibitor, 4% DMSO, 450 μM substrate, pH 5.5, 30 minutes at 37° C.
T1 construct: purified protease
Procedure: An HIV protease standard assay was performed in a 60 μl reaction medium containing 50 mM sodium acetate, pH 5.5, 100 μg/ml bovine serum, 450 μM substrate (H2 N-Val-Ser-Gin-Asn-( β-naphthyl-alanine)-Pro-Val-Ile-OH), and purified protease. The reaction medium was incubated for 30 minutes at 37° C., quenched by the addition of 140 μl 5% H3 PO4, then analyzed by reverse phase HPLC using UV220 detection. In a typical control assay, 7% of the substrate was hydrolyzed. The retrocarbamate protease inhibitors of the present invention, listed in the following Table 1, were then employed in the assay, for which purpose they were prepared as a […] solution in DMSO then diluted to 30 μM with 50 mM sodium acetate/bovine serum albumen. This working stock was then diluted three-fold into the protease reaction medium, for a final concentration of 10 μM inhibitor and 4% DMSO.

HIV (CEM Cells) = assay: Cell Culture Anti-HIV Activity (formazan cell viability of HIV-infected CEM-SS cells); format: cell-based; conditions: Human immunodeficiency virus 1, CCRF-CEM, 144 h; CEM-SS cells infected with RF strain of HIV, multiplicity of infection 0.04, 6 days at 37° C.; concentration raising formazan production to 50% of uninfected cells
Procedure: The antiviral activity of the retrocarbamate protease inhibitors of the present invention was evaluated by a microculture method which determines the increase in cell viability of an infected culture when a drug is added. The assay depends on the metabolic reduction of tetrazolium reagent by viable cells to yield a soluble colored formazan product. The assay was performed as follows: suspensions of CEM--SS cells (5000/well) were infected with the RF strain of HIV at a multiplicity of infection at 0.04 in a 96-well plate. The compounds of the present invention listed in the following Table 1, serially diluted in half-log fashion, were added to the infected and uninfected control cells. Untreated (infected and uninfected) cells were included as controls. Following incubation for 6 days at 37° C., viable cells in each well were quantitated by the visible light absorbance at 450 nm. The IC50 was calculated as the concentration of drug that increased the formazan production in virally infected cells to 50% of that produced by uninfected cells in the absence of drug.

Row | inhibition at 10 µM (HIV protease) [%] | Structure (SMILES) | IC50 (HIV (CEM Cells)) [µM]
1 | 98 | CC(C)(C)NC(=O)O[C@@H](Cc1ccccc1)[C@H](O)CNC[C@@H](O)[C@H](Cc1ccccc1)NC(=O)OC(C)(C)C [Example 1, [1S-[1R*,2S*(2S*,3R*)]]-[3-[[3-[[[(1,1-Dimethylethyl)amino]carbonyl]oxy]-2-hydroxy-4-phenylbutyl]amino]-2-hydroxy-1-(phenylmethyl)-propyl]carbamic acid, 1,1-dimethyl ester] | 0.46
2 | 90 | CC(C)(C)NC(=O)O[C@@H](Cc1ccccc1)[C@H](O)CNC[C@@H](O)[C@H](Cc1ccc(OCC(=O)N2CCOCC2)cc1)NC(=O)OC(C)(C)C [Example 2, [1S-[1R*,2S* (2S*,3R*)]]-[3-[[3-[[[(1,1-Dimethylethyl)amino]carbonyl]oxy]-2-hydroxy-4-phenylbutyl]amino]-2-hydroxy-1-[[4-[2-(morpholinyl)-2-oxoethoxy]phenyl]methyl]propyl]carbamic acid, 1,1-dimethylethyl ester] | 0.2
3 | 98 | CC(C)(C)NC(=O)O[C@@H](Cc1ccccc1)[C@H](O)CNC[C@@H](O)[C@H](Cc1ccccc1)NC(=O)[C@](C)(O)C(C)(C)C [Example 3, [1S-[1R*, 2S*[2S*, 3R* (S*)]]]-(1,1-Dimethylethyl)carbamic acid, 3-[[3-[(2-hydroxy-2,3,3-trimethyl-1-oxobutyl)amino]-2-hydroxy-4-phenylbutyl]amino]-2-hydroxy-1-(phenylmethyl)propyl ester] | 0.1
